Test results taken from US8163718B2, “Nucleoside analogues containing phosphonate or phosphonamide groups” (Gilead Sciences, Inc., priority 2008, dated 2012).

test system: A549; test: Cytostatic cell culture assay (GI50), SRB; type: cell-based; details: Homo sapiens, A549, 120 h; 5 days incubation
Source text: (§1) The assay is based on quantification of cell counts by a colorimetric detection of the cell associated proteins. The assay relies on the ability of sulforhodamine B (SRB) to bind to protein components of cells that have been fixed to tissue-culture plates by trichloroacetic acid (TCA). SRB is a bright-pink aminoxanthene dye with two sulfonic groups that bind to basic amino-acid residues under mild acidic conditions, and dissociate under basic conditions. As the binding of SRB is stoichiometric, the amount of dye extracted from stained cells is directly proportional to the cell mass.
(§2) Cell lines: All cell lines were obtained from ATCC (Manassas, Va.). Cultivation media containing Glutamax, and trypsin were purchased from Invitrogen (Carlsbad, Calif.). Doxorubicin, Clofarabine, TCA and SRB were from Sigma-Aldrich (St. Louis, Mo.). Gemcitabine was obtained from Moravek Biochemicals (Brea, Calif.)
(§3) • 1. Trypsinize the sub-confluent cells, count them, and adjust the cell concentrations according to the cell counts listed in Table 1. • 2. Distribute the cells into the 96-well plates in 150 μL of media. Incubate the plates overnight in humidified CO2 incubator at 37° C. • 3. Fix one plate of each cell line with TCA. Discard the cultivation media from the plates by flicking them gently and add 100 ul cold 10% (vol/vol) TCA to each well. Incubate the plates at 4 degree refrigerator for 1 hour. Discard TCA from the plates by flicking them gently. Rinse plates four times in a washing basin containing tap water. Store the plates at room temperature. These plates represent cell counts on day zero. • 4. Prepare a set of medium solutions containing various concentrations of tested compounds by making 5-fold serial dilutions in 96-well plate. Add 50 μL of the diluted compounds per well. Include controls with untreated cells and cells treated with doxorubicin, clofarabine and gemcitabine. • 5. Incubate the plates for 5 days at 37° C. • 6. Fix the plates with TCA. Discard the cultivation media from the plates by flicking them gently and add 100 ul cold 10% (vol/vol) TCA to each well. Incubate the plates at 4 degree refrigerator for 1 hour. Discard TCA from the plates by flicking them gently. Rinse plates four times in a washing basin containing tap water. • 7. Remove excess water by tapping the plates face down, gently on a paper towel. Allow the plates to air-dry at room temperature. • 8. Add 100 ul of 0.057% SRB solution in 1% (vol/vol) acetic acid to each well of the plates fixed with TCA on day zero and five. Leave at room temperature for 30 minutes. • 9. Flick the plates gently to discard SRB. Rinse the plates four times with 1% (vol/vol) Acetic Acid. • 10. Store the plates at 37 degree incubator to facilitate faster drying. • 11. Once the plates are completely dry, add 200 ul of 10 mM Tris base solution (pH 10.5) to each well. Leave at room temperature for 30 minutes for SRB to solubilize. • 12. Measure the OD at 500 nm in a microplate reader • 13. Calculate the percentage of cell-growth inhibition using the next formula: % of control cell growth=100×(ODsample−mean ODday0)/(ODneg control−mean ODday0)
(§4) For GI50 determination, plot a dose-response curve between the compound concentration and percent of growth inhibition. GI50 values can be derived by fitting dose-response curves using sigmoidal dose response equation.

| GI50 [µM] | Compound |
| --- | --- |
| 3.36 | CCCCCOc1nc(N)nc2c1ncn2CCOCP(=O)(O)O [Example 7, [2-(2-Amino-6-pentyloxy-purin-9-yl)-ethoxymethyl]-phosphonic acid] |
| > 10 | Nc1nc(OC2CCCCC2)c2ncn(CCOCP(=O)(O)O)c2n1 [Example 6, [2-(2-Amino-6-cyclohexyloxy-purin-9-yl)-ethoxymethyl]-phosphonic acid] |
| 1.24 | CCCOc1nc(N)nc2c1ncn2CCOCP(=O)(O)O [Example 1, [2-(2-Amino-6-propoxy-purin-9-yl)-ethoxymethyl]-phosphonic acid] |
| 0.103 | CCCCOC(=O)[C@H](C)NP(=O)(COCCn1cnc2c(OC3CCCC3)nc(N)nc21)N[C@@H](C)C(=O)OCCCC [Example 47] |

| Compound | GI50 [µM] |
| --- | --- |
| Nc1nc(OC2CCC2)c2ncn(CCOCP(=O)(O)O)c2n1 [Example 9, [2-(2-Amino-6-cyclobutoxy-purin-9-yl)-ethoxymethyl]-phosphonic acid] | 1.83 |

test system: BT-549; test: Cytostatic cell culture assay (GI50), SRB; type: cell-based; details: Homo sapiens, BT-549, 120 h; 5 days incubation
Source text: as §1, §2, §3, §4

| GI50 [µM] | Compound |
| --- | --- |
| 2.57 | CCCCCOc1nc(N)nc2c1ncn2CCOCP(=O)(O)O [Example 7, [2-(2-Amino-6-pentyloxy-purin-9-yl)-ethoxymethyl]-phosphonic acid] |
| 17 | Nc1nc(OC2CCCCC2)c2ncn(CCOCP(=O)(O)O)c2n1 [Example 6, [2-(2-Amino-6-cyclohexyloxy-purin-9-yl)-ethoxymethyl]-phosphonic acid] |
| 0.9 | CCCOc1nc(N)nc2c1ncn2CCOCP(=O)(O)O [Example 1, [2-(2-Amino-6-propoxy-purin-9-yl)-ethoxymethyl]-phosphonic acid] |
| 0.326 | CCCCOC(=O)[C@H](C)NP(=O)(COCCn1cnc2c(OC3CCCC3)nc(N)nc21)N[C@@H](C)C(=O)OCCCC [Example 47] |

| Compound | GI50 [µM] |
| --- | --- |
| Nc1nc(OC2CCC2)c2ncn(CCOCP(=O)(O)O)c2n1 [Example 9, [2-(2-Amino-6-cyclobutoxy-purin-9-yl)-ethoxymethyl]-phosphonic acid] | 1.55 |

test system: Du-145; test: Cytostatic cell culture assay (GI50), SRB; type: cell-based; details: Homo sapiens, DU-145, 120 h; 5 days incubation
Source text: as §1, §2, §3, §4

| GI50 [µM] | Compound |
| --- | --- |
| 0.101 | CCCCCOc1nc(N)nc2c1ncn2CCOCP(=O)(O)O [Example 7, [2-(2-Amino-6-pentyloxy-purin-9-yl)-ethoxymethyl]-phosphonic acid] |
| 0.439 | Nc1nc(OC2CCCCC2)c2ncn(CCOCP(=O)(O)O)c2n1 [Example 6, [2-(2-Amino-6-cyclohexyloxy-purin-9-yl)-ethoxymethyl]-phosphonic acid] |
| 0.076 | CCCOc1nc(N)nc2c1ncn2CCOCP(=O)(O)O [Example 1, [2-(2-Amino-6-propoxy-purin-9-yl)-ethoxymethyl]-phosphonic acid] |
| 0.001 | CCCCOC(=O)[C@H](C)NP(=O)(COCCn1cnc2c(OC3CCCC3)nc(N)nc21)N[C@@H](C)C(=O)OCCCC [Example 47] |

| Compound | GI50 [µM] |
| --- | --- |
| Nc1nc(OC2CCC2)c2ncn(CCOCP(=O)(O)O)c2n1 [Example 9, [2-(2-Amino-6-cyclobutoxy-purin-9-yl)-ethoxymethyl]-phosphonic acid] | 0.077 |

test system: HCT-116; test: Cytostatic cell culture assay (GI50), SRB; type: cell-based; details: Homo sapiens, HCT-116, 120 h; 5 days incubation
Source text: as §1, §2, §3, §4

| GI50 [µM] | Compound |
| --- | --- |
| 2.45 | CCCCCOc1nc(N)nc2c1ncn2CCOCP(=O)(O)O [Example 7, [2-(2-Amino-6-pentyloxy-purin-9-yl)-ethoxymethyl]-phosphonic acid] |
| > 10 | Nc1nc(OC2CCCCC2)c2ncn(CCOCP(=O)(O)O)c2n1 [Example 6, [2-(2-Amino-6-cyclohexyloxy-purin-9-yl)-ethoxymethyl]-phosphonic acid] |
| 1.1 | CCCOc1nc(N)nc2c1ncn2CCOCP(=O)(O)O [Example 1, [2-(2-Amino-6-propoxy-purin-9-yl)-ethoxymethyl]-phosphonic acid] |
| 0.055 | CCCCOC(=O)[C@H](C)NP(=O)(COCCn1cnc2c(OC3CCCC3)nc(N)nc21)N[C@@H](C)C(=O)OCCCC [Example 47] |

| Compound | GI50 [µM] |
| --- | --- |
| Nc1nc(OC2CCC2)c2ncn(CCOCP(=O)(O)O)c2n1 [Example 9, [2-(2-Amino-6-cyclobutoxy-purin-9-yl)-ethoxymethyl]-phosphonic acid] | 1.72 |

test system: HCT-15; test: Cytostatic cell culture assay (GI50), SRB; type: cell-based; details: Homo sapiens, HCT-15, 120 h; 5 days incubation
Source text: as §1, §2, §3, §4

| GI50 [µM] | Compound |
| --- | --- |
| 2.61 | CCCCCOc1nc(N)nc2c1ncn2CCOCP(=O)(O)O [Example 7, [2-(2-Amino-6-pentyloxy-purin-9-yl)-ethoxymethyl]-phosphonic acid] |
| 13 | Nc1nc(OC2CCCCC2)c2ncn(CCOCP(=O)(O)O)c2n1 [Example 6, [2-(2-Amino-6-cyclohexyloxy-purin-9-yl)-ethoxymethyl]-phosphonic acid] |
| 0.886 | CCCOc1nc(N)nc2c1ncn2CCOCP(=O)(O)O [Example 1, [2-(2-Amino-6-propoxy-purin-9-yl)-ethoxymethyl]-phosphonic acid] |
| 1.81 | CCCCOC(=O)[C@H](C)NP(=O)(COCCn1cnc2c(OC3CCCC3)nc(N)nc21)N[C@@H](C)C(=O)OCCCC [Example 47] |

| Compound | GI50 [µM] |
| --- | --- |
| Nc1nc(OC2CCC2)c2ncn(CCOCP(=O)(O)O)c2n1 [Example 9, [2-(2-Amino-6-cyclobutoxy-purin-9-yl)-ethoxymethyl]-phosphonic acid] | 1.22 |

test system: Hs-578; test: Cytostatic cell culture assay (GI50), SRB; type: cell-based; details: Hs578, 120 h; 5 days incubation
Source text: as §1, §2, §3, §4

| Compound | GI50 [µM] |
| --- | --- |
| CCCCCOc1nc(N)nc2c1ncn2CCOCP(=O)(O)O [Example 7, [2-(2-Amino-6-pentyloxy-purin-9-yl)-ethoxymethyl]-phosphonic acid] | 1.57 |
| Nc1nc(OC2CCCCC2)c2ncn(CCOCP(=O)(O)O)c2n1 [Example 6, [2-(2-Amino-6-cyclohexyloxy-purin-9-yl)-ethoxymethyl]-phosphonic acid] | 11 |
| CCCOc1nc(N)nc2c1ncn2CCOCP(=O)(O)O [Example 1, [2-(2-Amino-6-propoxy-purin-9-yl)-ethoxymethyl]-phosphonic acid] | 3.81 |
| CCCCOC(=O)[C@H](C)NP(=O)(COCCn1cnc2c(OC3CCCC3)nc(N)nc21)N[C@@H](C)C(=O)OCCCC [Example 47] | 0.05 |
| Nc1nc(OC2CCC2)c2ncn(CCOCP(=O)(O)O)c2n1 [Example 9, [2-(2-Amino-6-cyclobutoxy-purin-9-yl)-ethoxymethyl]-phosphonic acid] | 1.55 |

test system: NCI-H23; test: Cytostatic cell culture assay (GI50), SRB; type: cell-based; details: Homo sapiens, NCI-H23, 120 h; 5 days incubation
Source text: as §1, §2, §3, §4

| GI50 [µM] | Compound |
| --- | --- |
| 0.596 | CCCCCOc1nc(N)nc2c1ncn2CCOCP(=O)(O)O [Example 7, [2-(2-Amino-6-pentyloxy-purin-9-yl)-ethoxymethyl]-phosphonic acid] |
| 6 | Nc1nc(OC2CCCCC2)c2ncn(CCOCP(=O)(O)O)c2n1 [Example 6, [2-(2-Amino-6-cyclohexyloxy-purin-9-yl)-ethoxymethyl]-phosphonic acid] |
| 0.287 | CCCOc1nc(N)nc2c1ncn2CCOCP(=O)(O)O [Example 1, [2-(2-Amino-6-propoxy-purin-9-yl)-ethoxymethyl]-phosphonic acid] |
| 0.004 | CCCCOC(=O)[C@H](C)NP(=O)(COCCn1cnc2c(OC3CCCC3)nc(N)nc21)N[C@@H](C)C(=O)OCCCC [Example 47] |

| Compound | GI50 [µM] |
| --- | --- |
| Nc1nc(OC2CCC2)c2ncn(CCOCP(=O)(O)O)c2n1 [Example 9, [2-(2-Amino-6-cyclobutoxy-purin-9-yl)-ethoxymethyl]-phosphonic acid] | 0.359 |

test system: PC3; test: Cytostatic cell culture assay (GI50), SRB; type: cell-based; details: Homo sapiens, PC-3, 120 h; 5 days incubation
Source text: as §1, §2, §3, §4

| GI50 [µM] | Compound |
| --- | --- |
| 0.595 | CCCCCOc1nc(N)nc2c1ncn2CCOCP(=O)(O)O [Example 7, [2-(2-Amino-6-pentyloxy-purin-9-yl)-ethoxymethyl]-phosphonic acid] |
| 3.01 | Nc1nc(OC2CCCCC2)c2ncn(CCOCP(=O)(O)O)c2n1 [Example 6, [2-(2-Amino-6-cyclohexyloxy-purin-9-yl)-ethoxymethyl]-phosphonic acid] |
| 1.1 | CCCOc1nc(N)nc2c1ncn2CCOCP(=O)(O)O [Example 1, [2-(2-Amino-6-propoxy-purin-9-yl)-ethoxymethyl]-phosphonic acid] |
| 0.008 | CCCCOC(=O)[C@H](C)NP(=O)(COCCn1cnc2c(OC3CCCC3)nc(N)nc21)N[C@@H](C)C(=O)OCCCC [Example 47] |

| Compound | GI50 [µM] |
| --- | --- |
| Nc1nc(OC2CCC2)c2ncn(CCOCP(=O)(O)O)c2n1 [Example 9, [2-(2-Amino-6-cyclobutoxy-purin-9-yl)-ethoxymethyl]-phosphonic acid] | 0.955 |
